Assay results taken from US9481610B2, “Use of a fertilizer containing L-amino acid for improving root growth and growth of mycorrhiza” (SweTree Technologies AB, priority 2007, dated 2016).

Legend:
Scots pine roots = assay: Evaluation of mycorrhiza of Scots pine roots (chitin content); format: in vivo; settings: fertilization with arginine
Arabidposis thaliana = assay: Growth and allocation of biomass as affected by nitrogen form in Arabidopsis; format: in vivo; settings: sterile culture 21 days, total nitrogen 6 mM

SMILES | chitin content of roots versus reference (in words) (Scots pine roots) | Root fraction (Arabidposis thaliana) | Total biomass (Arabidposis thaliana)
N=C(N)NCCC[C@H](N)C(=O)O [L-Arginine] | substantially higher content of chitin in roots | – | –
O=[N+]([O-])O [nitrate] | – | 0.12 | 4.63
